According to patent publication US20230126893A1, “[(1,4,5-TRISUBSTITUTED-1H-PYRAZOL-3-YL)SULFANYL]ACETIC ACID DERIVATIVES, SALTS THEREOF, AND USE THEREOF AS ACTIVE HERBICIDAL INGREDIENTS” (BAYER AKTIENGESELLSCHAFT, priority 2020, published 2023):

Assays:
Format in all cases: in vivo
Alopecurus myosuroides [1] = experiment: Pre-emergence herbicidal effect against ALOMY; conditions: 1280 g/ha, visual score after 3 weeks, 100% = plants have died, 0% = like control plants
Outline: (§1)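 Visual rating against untreated controls after 3 weeks in greenhouse, from 0% (no difference) to 100% (dead plants). Compound, as WP or EC with 0.2% wetting agent in 600 to 800 L/ha water, applied to covering soil over seeds sown in sandy loam.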

Echinochloa crus-galli [2] = experiment: Pre-emergence herbicidal effect against ECHCG; conditions: 1280 g/ha, visual score after 3 weeks, 100% = plants have died, 0% = like control plants
Outline: as §1

Poa annua [3] = experiment: Pre-emergence herbicidal effect against POAAN; conditions: 1280 g/ha, visual score after 3 weeks, 100% = plants have died, 0% = like control plants
Outline: as §1

Setaria viridis [4] = experiment: Pre-emergence herbicidal effect against SETVI; conditions: 1280 g/ha, visual score after 3 weeks, 100% = plants have died, 0% = like control plants
Outline: as §1

Bassia scoparia [5] = experiment: Pre-emergence herbicidal effect against KCHSC; conditions: 1280 g/ha, visual score after 3 weeks, 100% = plants have died, 0% = like control plants
From the text: (§2) 1. Pre-emergence herbicidal effect and crop plant compatibility Seeds of monocotyledonous and dicotyledonous weed plants and crop plants are laid out in sandy loam soil in wood-fibre pots and covered with soil. The compounds of the invention, formulated in the form of wettable powders (WP) or as emulsion concentrates (EC), are then applied to the surface of the covering soil as aqueous suspension or emulsion at a water application rate equating to 600 to 800 L/ha with addition of 0.2% wetting agent. After the treatment, the pots are placed in a greenhouse and kept under good growth conditions for the trial plants. The damage to the test plants is scored visually after a test period of 3 weeks by comparison with untreated controls (herbicidal activity in percent (%): 100% activity=the plants have died, 0% activity=like control plants). [table]

[6] = tested on: Tripleurospermum inodorum; experiment: Pre-emergence herbicidal effect against MATIN; conditions: 1280 g/ha, visual score after 3 weeks, 100% = plants have died, 0% = like control plants
Outline: as §1

Stellaria media [7] = experiment: Pre-emergence herbicidal effect against STEME; conditions: 1280 g/ha, visual score after 3 weeks, 100% = plants have died, 0% = like control plants
Outline: as §1

Veronica persica [8] = experiment: Pre-emergence herbicidal effect against VERPE; conditions: 1280 g/ha, visual score after 3 weeks, 100% = plants have died, 0% = like control plants
Outline: as §1

Alopecurus myosuroides [9] = experiment: Post-emergence herbicidal effect against ALOMY; conditions: 1280 g/ha, visual score after about 3 weeks, 100% = plants have died, 0% = like control plants
Outline: (§3)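 Activity scored visually as percent damage relative to untreated plants (100% = dead) roughly 3 weeks post-spray. Plants at the one-leaf stage, 2–3 weeks old in sandy loam under greenhouse conditions, received WP/EC formulations in 600–800 l/ha water plus 0.2% wetting agent.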

Echinochloa crus-galli [10] = experiment: Post-emergence herbicidal effect against ECHCG; conditions: 1280 g/ha, visual score after about 3 weeks, 100% = plants have died, 0% = like control plants
Outline: as §3

Poa annua [11] = experiment: Post-emergence herbicidal effect against POAAN; conditions: 1280 g/ha, visual assessment about 3 weeks after treatment, 100% = plants have died, 0% = like control plants
Outline: as §3

Setaria viridis [12] = experiment: Post-emergence herbicidal effect against SETVI; conditions: 1280 g/ha, visual assessment about 3 weeks after treatment, 100% = plants have died, 0% = like control plants
Outline: as §3

Abutylon threophrasti = experiment: Post-emergence herbicidal effect against ABUTH; conditions: 1280 g/ha, visual assessment about 3 weeks after treatment, 100% = plants have died, 0% = like control plants
Outline: as §3

Bassia scoparia [13] = experiment: Post-emergence herbicidal effect against KCHSC; conditions: 1280 g/ha, visual assessment about 3 weeks after treatment, 100% = plants have died, 0% = like control plants
Outline: as §3

[14] = tested on: Tripleurospermum inodorum; experiment: Post-emergence herbicidal effect against MATIN; conditions: 1280 g/ha, visual assessment about 3 weeks after treatment, 100% = plants have died, 0% = like control plants
Outline: as §3

Stellaria media [15] = experiment: Post-emergence herbicidal effect against STEME; conditions: 1280 g/ha, visual assessment about 3 weeks after treatment, 100% = plants have died, 0% = like control plants
Outline: as §3

Veronica persica [16] = experiment: Post-emergence herbicidal effect against VERPE; conditions: 1280 g/ha, visual assessment about 3 weeks after treatment, 100% = plants have died, 0% = like control plants
Outline: as §3

Digitaria sanguinalis [17] = experiment: Pre-emergence herbicidal effect against DIGSA; conditions: 1280 g/ha, visual score after 3 weeks, 100% = plants have died, 0% = like control plants
Outline: as §1

Lolium rigidum = experiment: Pre-emergence herbicidal effect against LOLRI; conditions: 1280 g/ha, visual score after 3 weeks, 100% = plants have died, 0% = like control plants
Outline: as §1

Digitaria sanguinalis [18] = experiment: Post-emergence herbicidal effect against DIGSA; conditions: 1280 g/ha, visual score after about 3 weeks, 100% = plants have died, 0% = like control plants
Outline: as §3

Amaranthus retroflexus [19] = experiment: Pre-emergence herbicidal effect against AMARE; conditions: 1280 g/ha, visual score after 3 weeks, 100% = plants have died, 0% = like control plants
From the text: as §2

Amaranthus retroflexus [20] = experiment: Post-emergence herbicidal effect against AMARE; conditions: 1280 g/ha, visual assessment about 3 weeks after treatment, 100% = plants have died, 0% = like control plants
Protocol: [table] 2. Post-emergence herbicidal effect and crop plant compatibility Seeds of monocotyledonous and dicotyledonous weed and crop plants are laid out in sandy loam soil in wood-fibre pots, covered with soil and cultivated in a greenhouse under good growth conditions. 2 to 3 weeks after sowing, the test plants are treated at the one-leaf stage. The compounds of the invention, formulated in the form of wettable powders (WP) or as emulsion concentrates (EC), are then sprayed onto the green parts of the plants as aqueous suspension or emulsion at a water application rate equating to 600 to 800 l/ha with addition of 0.2% wetting agent. After the test plants have been left to stand in the greenhouse under optimal growth conditions for about 3 weeks, the action of the preparations is assessed visually in comparison to untreated controls (herbicidal action in percent (%): 100% activity=the plants have died, 0% activity=like control plants).

Compound | Pre-emergence action against ALOMY (Alopecurus myosuroides [1]) [%] | Pre-emergence action against ECHCG (Echinochloa crus-galli [2]) [%] | Pre-emergence action against POAAN (Poa annua [3]) [%] | Pre-emergence action against SETVI (Setaria viridis [4]) [%] | Pre-emergence action against KCHSC (Bassia scoparia [5]) [%] | Pre-emergence action against MATIN [6] [%] | Pre-emergence action against STEME (Stellaria media [7]) [%] | Pre-emergence action against VERPE (Veronica persica [8]) [%] | Post-emergence action against ALOMY (Alopecurus myosuroides [9]) [%] | Post-emergence action against ECHCG (Echinochloa crus-galli [10]) [%] | Post-emergence action against POAAN (Poa annua [11]) [%] | Post-emergence action against SETVI (Setaria viridis [12]) [%] | Post-emergence action against ABUTH (Abutylon threophrasti) [%] | Post-emergence action against KCHSC (Bassia scoparia [13]) [%] | Post-emergence action against MATIN [14] [%] | Post-emergence action against STEME (Stellaria media [15]) [%] | Post-emergence action against VERPE (Veronica persica [16]) [%] | Pre-emergence action against DIGSA (Digitaria sanguinalis [17]) [%] | Pre-emergence action against LOLRI (Lolium rigidum) [%] | Post-emergence action against DIGSA (Digitaria sanguinalis [18]) [%] | also measured
COC(=O)CNC(=O)CSc1nn(-c2ccccc2F)c(-c2cccnc2)c1Br [VII-007] | 90 | 100 | 100 | 100 | 90 | 90 | 90 | 90 | 90 | 90 | 90 | 90 | 90 | 90 | 90 | 90 | 90 | – | – | – | –
CCOC(=O)C(C)Sc1nn(-c2ccccc2F)c(-c2ccc(F)c(F)c2)c1Br (centres unmarked) [Example I-015] | 100 | 100 | 100 | 100 | 100 | 100 | 100 | 100 | 100 | 100 | 100 | – | 90 | 90 | – | – | 100 | 100 | 100 | – | –
CCOC(=O)CSc1nn(-c2ccc(F)cc2F)c(-c2ccc(F)cc2)c1Br [Example I-016] | 90 | 100 | 100 | 100 | 100 | 100 | 100 | 100 | 100 | 90 | 90 | – | – | 90 | 90 | 90 | 90 | 100 | 90 | 90 | –
CCOC(=O)CSc1nn(-c2ccccc2F)c(-c2ccc(F)c(F)c2)c1C#N [Example I-012] | – | 100 | 100 | 100 | – | 100 | 100 | 100 | 100 | 100 | 100 | 90 | – | 90 | 90 | 100 | 100 | 100 | 90 | 100 | Pre-emergence action against AMARE (Amaranthus retroflexus [19]): 100%; Post-emergence action against AMARE (Amaranthus retroflexus [20]): 90%
CCOC(=O)CSc1nn(-c2ccccc2F)c(-c2ccc(F)nc2)c1Br [II-001, Ethyl {[4-bromo-1-(2-fluorophenyl)-5-(6-fluoropyridin-3-yl)-1H-pyrazol-3-yl]sulfanyl}acetate] | 100 | 100 | 100 | 100 | – | 100 | 90 | 100 | 100 | 100 | 100 | 90 | 90 | – | 100 | 90 | 90 | 100 | 100 | 100 | Pre-emergence action against AMARE (Amaranthus retroflexus [19]): 100%; Post-emergence action against AMARE (Amaranthus retroflexus [20]): 100%
CCOC(=O)CSc1nn(-c2ccccc2F)c(-c2ccc(F)c(F)c2)c1Cl [Example I-001] | 100 | – | 100 | 100 | – | 90 | 100 | 100 | 100 | 100 | 100 | 90 | 90 | 90 | 100 | 100 | 100 | 100 | 100 | 100 | Pre-emergence action against AMARE (Amaranthus retroflexus [19]): 100%; Post-emergence action against AMARE (Amaranthus retroflexus [20]): 90%
O=C(O)CSc1nn(-c2ccccc2F)c(-c2cncc(Cl)c2)c1Br [II-008] | 100 | 100 | 100 | 100 | – | 100 | 100 | 100 | 100 | 100 | 100 | 90 | 90 | – | 100 | 100 | 100 | 100 | 100 | 100 | Pre-emergence action against AMARE (Amaranthus retroflexus [19]): 100%; Post-emergence action against AMARE (Amaranthus retroflexus [20]): 90%
COC(=O)CN(C)C(=O)CSc1nn(-c2ccccc2F)c(-c2ccc(F)c(F)c2)c1Cl [VII-002] | – | 100 | – | 100 | 90 | – | 100 | 90 | – | – | 100 | 90 | – | – | 90 | 90 | 90 | – | – | – | –
